From patent US9708314B2, “Heterocyclic amide compound” (NISSAN CHEMICAL INDUSTRIES, LTD., priority 2013, dated 2017)

Tests used:
Type in all cases: in vivo
Chenopodium album = experiment: Test Example 4: herbicidal effect by application to foliage (diluvial soil, plastic box); conditions: application to foliage, application herbicide amount 320 g/ha
Outline: (§1)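 Emulsion-formulated compound, diluted to a predetermined g/ha dose, applied by small sprayer to leaves and stems of 14-day-old seedlings grown in sterilized diluvial soil. Effect rated on 0–5 herbicidal-ratio scale three weeks on.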

Apera spica-venti. = experiment: as above; conditions: application to foliage, application herbicide amount 320 g/ha
Outline: as §1

Avena fatua = experiment: as above; conditions: application to foliage, application herbicide amount 320 g/ha
Outline: as §1

Abutilon theophrasti = experiment: as above; conditions: application to foliage, application herbicide amount 320 g/ha
Outline: as §1

Alopecurus myosuroides = experiment: as above; conditions: application to foliage, application herbicide amount 320 g/ha
Outline: as §1

Veronica persica = experiment: as above; conditions: application to foliage, application herbicide amount 320 g/ha
Outline: as §1

[1] = test system: Echinochloa crus-galli var. crus-galli; experiment: as above; conditions: application to foliage, application herbicide amount 320 g/ha
Outline: as §1

Setaria viridis = experiment: as above; conditions: application to foliage, application herbicide amount 320 g/ha
Outline: as §1

Lolium multiflorum Lam. = experiment: as above; conditions: application to foliage, application herbicide amount 320 g/ha
Outline: as §1

Digitaria ciliaris = experiment: as above; conditions: application to foliage, application herbicide amount 320 g/ha
Outline: as §1

Galium spurium = experiment: as above; conditions: application to foliage, application herbicide amount 320 g/ha
Outline: as §1

[2] = test system: directly sowed Oryza sativa; experiment: Test Example 3: effect on crop by application to foliage (Wagner pot, water depth 0.1-0.5 cm); conditions: Nineteenth Table; application herbicide amount 320 g/ha
Outline: (§2)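 Foliar spray, 14-day-old plants, emulsion diluted to target g/ha; rated 3 wk post-application, 0–5 scale (0 ≤5%, 5 ≥90% herbicidal ratio). Greenhouse 25–30 °C, alluvial soil.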

Cyperus difformis = experiment: Test Example 3: herbicidal effect by application to foliage (Wagner pot, water depth 0.1-0.5 cm); conditions: Nineteenth Table; application herbicide amount 320 g/ha
Outline: as §2

Leptochloa chinensis = experiment: as above; conditions: Nineteenth Table; application herbicide amount 320 g/ha
Outline: as §2

[3] = test system: Echinochloa crus-galli var. crus-galli; experiment: as above; conditions: Nineteenth Table; application herbicide amount 320 g/ha
Outline: as §2

Cc1nnc(NC(=O)c2ccc(C(F)(F)F)n3c(S(C)(=O)=O)nnc23)o1 [1-040]
O (Chenopodium album) herbicidal effect (Chenopodium album): 5 (Herbicidal ratio of 90% or more (almost completely withered)) | L (Apera spica-venti.) herbicidal effect (Apera spica-venti.): 4 (Herbicidal ratio of 70% or more and less than 90%) | I (Avena fatua) herbicidal effect (Avena fatua): 3 (Herbicidal ratio of 40% or more and less than 70%) | M (Abutilon theophrasti) herbicidal effect (Abutilon theophrasti): 5 (Herbicidal ratio of 90% or more (almost completely withered)) | J (Alopecurus myosuroides) herbicidal effect (Alopecurus myosuroides): 3 (Herbicidal ratio of 40% or more and less than 70%) | R (Veronica persica) herbicidal effect (Veronica persica): 5 (Herbicidal ratio of 90% or more (almost completely withered)) | H (Echinochloa crus-galli var. crus-galli) herbicidal effect [1]: 4 (Herbicidal ratio of 70% or more and less than 90%) | G (Setaria viridis) herbicidal effect (Setaria viridis): 4 (Herbicidal ratio of 70% or more and less than 90%) | K (Lolium multiflorum Lam.) herbicidal effect (Lolium multiflorum Lam.): 3 (Herbicidal ratio of 40% or more and less than 70%) | F (Digitaria ciliaris) herbicidal effect (Digitaria ciliaris): 5 (Herbicidal ratio of 90% or more (almost completely withered)) | Q (Galium spurium) herbicidal effect (Galium spurium): 3 (Herbicidal ratio of 40% or more and less than 70%) | b (directly sowed Oryza sativa) effect on crop grade [2]: 3 (Herbicidal ratio of 40% or more and less than 70%) | E (Cyperus difformis) herbicidal ratio grade (Cyperus difformis): 4 (Herbicidal ratio of 70% or more and less than 90%) | D (Leptochloa chinensis) herbicidal ratio grade (Leptochloa chinensis): 5 (Herbicidal ratio of 90% or more (almost completely withered)) | H (Echinochloa crus-galli var. crus-galli) herbicidal ratio grade [3]: 4 (Herbicidal ratio of 70% or more and less than 90%)

CCS(=O)(=O)c1nnc2c(C(=O)Nc3nnc(C)o3)ccc(C(F)(F)F)n12 [1-041]
O (Chenopodium album) herbicidal effect (Chenopodium album): 5 (Herbicidal ratio of 90% or more (almost completely withered)) | L (Apera spica-venti.) herbicidal effect (Apera spica-venti.): 4 (Herbicidal ratio of 70% or more and less than 90%) | I (Avena fatua) herbicidal effect (Avena fatua): 3 (Herbicidal ratio of 40% or more and less than 70%) | M (Abutilon theophrasti) herbicidal effect (Abutilon theophrasti): 5 (Herbicidal ratio of 90% or more (almost completely withered)) | J (Alopecurus myosuroides) herbicidal effect (Alopecurus myosuroides): 1 (Herbicidal ratio of 5% or more and less than 20%) | R (Veronica persica) herbicidal effect (Veronica persica): 4 (Herbicidal ratio of 70% or more and less than 90%) | H (Echinochloa crus-galli var. crus-galli) herbicidal effect [1]: 5 (Herbicidal ratio of 90% or more (almost completely withered)) | G (Setaria viridis) herbicidal effect (Setaria viridis): 4 (Herbicidal ratio of 70% or more and less than 90%) | K (Lolium multiflorum Lam.) herbicidal effect (Lolium multiflorum Lam.): 2 (Herbicidal ratio of 20% or more and less than 40%) | F (Digitaria ciliaris) herbicidal effect (Digitaria ciliaris): 5 (Herbicidal ratio of 90% or more (almost completely withered)) | Q (Galium spurium) herbicidal effect (Galium spurium): 3 (Herbicidal ratio of 40% or more and less than 70%) | b (directly sowed Oryza sativa) effect on crop grade [2]: 2 (Herbicidal ratio of 20% or more and less than 40%) | E (Cyperus difformis) herbicidal ratio grade (Cyperus difformis): 5 (Herbicidal ratio of 90% or more (almost completely withered)) | D (Leptochloa chinensis) herbicidal ratio grade (Leptochloa chinensis): 5 (Herbicidal ratio of 90% or more (almost completely withered)) | H (Echinochloa crus-galli var. crus-galli) herbicidal ratio grade [3]: 4 (Herbicidal ratio of 70% or more and less than 90%)

Cc1ccc(-c2nnc3c(C(=O)Nc4nnc(C)o4)ccc(C(F)(F)F)n23)cc1 [1-043]
O (Chenopodium album) herbicidal effect (Chenopodium album): 5 (Herbicidal ratio of 90% or more (almost completely withered)) | L (Apera spica-venti.) herbicidal effect (Apera spica-venti.): 1 (Herbicidal ratio of 5% or more and less than 20%) | I (Avena fatua) herbicidal effect (Avena fatua): 2 (Herbicidal ratio of 20% or more and less than 40%) | M (Abutilon theophrasti) herbicidal effect (Abutilon theophrasti): 5 (Herbicidal ratio of 90% or more (almost completely withered)) | J (Alopecurus myosuroides) herbicidal effect (Alopecurus myosuroides): 1 (Herbicidal ratio of 5% or more and less than 20%) | R (Veronica persica) herbicidal effect (Veronica persica): 4 (Herbicidal ratio of 70% or more and less than 90%) | H (Echinochloa crus-galli var. crus-galli) herbicidal effect [1]: 5 (Herbicidal ratio of 90% or more (almost completely withered)) | G (Setaria viridis) herbicidal effect (Setaria viridis): 3 (Herbicidal ratio of 40% or more and less than 70%) | K (Lolium multiflorum Lam.) herbicidal effect (Lolium multiflorum Lam.): 1 (Herbicidal ratio of 5% or more and less than 20%) | F (Digitaria ciliaris) herbicidal effect (Digitaria ciliaris): 4 (Herbicidal ratio of 70% or more and less than 90%) | Q (Galium spurium) herbicidal effect (Galium spurium): 3 (Herbicidal ratio of 40% or more and less than 70%) | b (directly sowed Oryza sativa) effect on crop grade [2]: 5 (Herbicidal ratio of 90% or more (almost completely withered)) | E (Cyperus difformis) herbicidal ratio grade (Cyperus difformis): 5 (Herbicidal ratio of 90% or more (almost completely withered)) | D (Leptochloa chinensis) herbicidal ratio grade (Leptochloa chinensis): 4 (Herbicidal ratio of 70% or more and less than 90%) | H (Echinochloa crus-galli var. crus-galli) herbicidal ratio grade [3]: 5 (Herbicidal ratio of 90% or more (almost completely withered))

Cc1nnc(NC(=O)c2ccc(C(F)(F)F)n3c(-c4ccc(F)cc4)nnc23)o1 [1-044]
O (Chenopodium album) herbicidal effect (Chenopodium album): 5 (Herbicidal ratio of 90% or more (almost completely withered)) | L (Apera spica-venti.) herbicidal effect (Apera spica-venti.): 4 (Herbicidal ratio of 70% or more and less than 90%) | I (Avena fatua) herbicidal effect (Avena fatua): 1 (Herbicidal ratio of 5% or more and less than 20%) | M (Abutilon theophrasti) herbicidal effect (Abutilon theophrasti): 5 (Herbicidal ratio of 90% or more (almost completely withered)) | J (Alopecurus myosuroides) herbicidal effect (Alopecurus myosuroides): 1 (Herbicidal ratio of 5% or more and less than 20%) | R (Veronica persica) herbicidal effect (Veronica persica): 5 (Herbicidal ratio of 90% or more (almost completely withered)) | H (Echinochloa crus-galli var. crus-galli) herbicidal effect [1]: 5 (Herbicidal ratio of 90% or more (almost completely withered)) | G (Setaria viridis) herbicidal effect (Setaria viridis): 4 (Herbicidal ratio of 70% or more and less than 90%) | K (Lolium multiflorum Lam.) herbicidal effect (Lolium multiflorum Lam.): 2 (Herbicidal ratio of 20% or more and less than 40%) | F (Digitaria ciliaris) herbicidal effect (Digitaria ciliaris): 4 (Herbicidal ratio of 70% or more and less than 90%) | Q (Galium spurium) herbicidal effect (Galium spurium): 3 (Herbicidal ratio of 40% or more and less than 70%) | b (directly sowed Oryza sativa) effect on crop grade [2]: 3 (Herbicidal ratio of 40% or more and less than 70%) | E (Cyperus difformis) herbicidal ratio grade (Cyperus difformis): 4 (Herbicidal ratio of 70% or more and less than 90%) | D (Leptochloa chinensis) herbicidal ratio grade (Leptochloa chinensis): 4 (Herbicidal ratio of 70% or more and less than 90%) | H (Echinochloa crus-galli var. crus-galli) herbicidal ratio grade [3]: 5 (Herbicidal ratio of 90% or more (almost completely withered))

COc1cccc(-c2nnc3c(C(=O)Nc4nnc(C)o4)ccc(C(F)(F)F)n23)c1 [1-046]
O (Chenopodium album) herbicidal effect (Chenopodium album): 5 (Herbicidal ratio of 90% or more (almost completely withered)) | L (Apera spica-venti.) herbicidal effect (Apera spica-venti.): 1 (Herbicidal ratio of 5% or more and less than 20%) | I (Avena fatua) herbicidal effect (Avena fatua): 1 (Herbicidal ratio of 5% or more and less than 20%) | M (Abutilon theophrasti) herbicidal effect (Abutilon theophrasti): 5 (Herbicidal ratio of 90% or more (almost completely withered)) | J (Alopecurus myosuroides) herbicidal effect (Alopecurus myosuroides): 0 (Herbicidal ratio of 5% or less (almost no effect)) | R (Veronica persica) herbicidal effect (Veronica persica): 4 (Herbicidal ratio of 70% or more and less than 90%) | H (Echinochloa crus-galli var. crus-galli) herbicidal effect [1]: 5 (Herbicidal ratio of 90% or more (almost completely withered)) | G (Setaria viridis) herbicidal effect (Setaria viridis): 5 (Herbicidal ratio of 90% or more (almost completely withered)) | K (Lolium multiflorum Lam.) herbicidal effect (Lolium multiflorum Lam.): 0 (Herbicidal ratio of 5% or less (almost no effect)) | F (Digitaria ciliaris) herbicidal effect (Digitaria ciliaris): 5 (Herbicidal ratio of 90% or more (almost completely withered)) | Q (Galium spurium) herbicidal effect (Galium spurium): 2 (Herbicidal ratio of 20% or more and less than 40%) | b (directly sowed Oryza sativa) effect on crop grade [2]: 3 (Herbicidal ratio of 40% or more and less than 70%) | E (Cyperus difformis) herbicidal ratio grade (Cyperus difformis): 3 (Herbicidal ratio of 40% or more and less than 70%) | D (Leptochloa chinensis) herbicidal ratio grade (Leptochloa chinensis): 3 (Herbicidal ratio of 40% or more and less than 70%) | H (Echinochloa crus-galli var. crus-galli) herbicidal ratio grade [3]: 5 (Herbicidal ratio of 90% or more (almost completely withered))

COc1ccccc1-c1nnc2c(C(=O)Nc3nnc(C)o3)ccc(C(F)(F)F)n12 [1-047]
O (Chenopodium album) herbicidal effect (Chenopodium album): 5 (Herbicidal ratio of 90% or more (almost completely withered)) | L (Apera spica-venti.) herbicidal effect (Apera spica-venti.): 1 (Herbicidal ratio of 5% or more and less than 20%) | I (Avena fatua) herbicidal effect (Avena fatua): 1 (Herbicidal ratio of 5% or more and less than 20%) | M (Abutilon theophrasti) herbicidal effect (Abutilon theophrasti): 5 (Herbicidal ratio of 90% or more (almost completely withered)) | J (Alopecurus myosuroides) herbicidal effect (Alopecurus myosuroides): 0 (Herbicidal ratio of 5% or less (almost no effect)) | R (Veronica persica) herbicidal effect (Veronica persica): 4 (Herbicidal ratio of 70% or more and less than 90%) | H (Echinochloa crus-galli var. crus-galli) herbicidal effect [1]: 5 (Herbicidal ratio of 90% or more (almost completely withered)) | G (Setaria viridis) herbicidal effect (Setaria viridis): 4 (Herbicidal ratio of 70% or more and less than 90%) | K (Lolium multiflorum Lam.) herbicidal effect (Lolium multiflorum Lam.): 0 (Herbicidal ratio of 5% or less (almost no effect)) | F (Digitaria ciliaris) herbicidal effect (Digitaria ciliaris): 4 (Herbicidal ratio of 70% or more and less than 90%) | Q (Galium spurium) herbicidal effect (Galium spurium): 2 (Herbicidal ratio of 20% or more and less than 40%) | b (directly sowed Oryza sativa) effect on crop grade [2]: 3 (Herbicidal ratio of 40% or more and less than 70%) | E (Cyperus difformis) herbicidal ratio grade (Cyperus difformis): 4 (Herbicidal ratio of 70% or more and less than 90%) | D (Leptochloa chinensis) herbicidal ratio grade (Leptochloa chinensis): 5 (Herbicidal ratio of 90% or more (almost completely withered)) | H (Echinochloa crus-galli var. crus-galli) herbicidal ratio grade [3]: 5 (Herbicidal ratio of 90% or more (almost completely withered))
